# Patent publication US7999119B2, “Compounds having CRTH2 antagonist activity” (Oxagen Limited, priority 2006, dated 2011)
# Several values for one entry are separate records, joined by “and”; a condition that tells them apart may be missing. Identical values can stand only once. Like-named read-outs stand apart in the source and are kept apart here.
# Columns and labels:
# [1] = tested on: DK-PGD2-induced blood eosinophilia; experiment: Inhibition of DK-PGD2-induced blood eosinophilia in rats; assay type: in vivo, rat; conditions: female rats, oral dosing 30 min before 10 μg DK-PGD2 intracardiac; ED50 from dose-response curve; the values are: ED50
# How it was run: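 Female rats (175–250 g) were given compound orally in DMSO/water and 30 min later received 10 μg DK-PGD2 intracardially under isoflurane. Blood was sampled 60 min after challenge. Eosinophils were counted from total leukocytes plus May-Grunwald/Giemsa differential counts, with ≥5 animals/group pooled across experiments and ED50 taken from the dose-response curve.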
# [2] = tested on: PGD2 induced eosinophil shape change; experiment: Human whole blood eosinophil shape change assay; assay type: cell-based; conditions: Homo sapiens, Eosinophil
# How it was run: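 Compound added to human whole blood and incubated 15 min at 37° C., 5% CO2, before cell fixation and red-cell lysis. Leukocytes analysed by FACS, eosinophils gated by autofluorescence, 2000 events per sample, triplicate; read-out is inhibition of PGD2-induced eosinophil shape change.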
# [3] = Pharmacokinetics following oral administration in the rat; assay type: in vivo; conditions: for Fold over IC50 at 24 h: mean blood concentration at 24 h (rat, 3 mg/kg p.o.) divided by whole blood IC50 in ng/ml; for AUCinf (mean): in ng·h/mL
# How it was run: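 Rats (groups of 3) given single oral gavage of 0.3 mg/mL suspension in 1% CMC at 10 mL/kg. Serial tail-vein catheter blood, terminal cardiac puncture; heparinised plasma assayed by LC-MS/MS.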
# [4] = 10 nm PGD2-induced eosinophil shape change, human whole blood, read-out: Whole Blood IC50
# [5] = Table 12 summary of whole blood eosinophil shape change IC50, read-out: IC50 (μmol)
# [6] = whole blood eosinophil shape change IC50 converted to ng/mL, read-out: IC50
# [7] = male, rat, plasma, po, 3 mg/kg, rat, 3 mg/kg oral, 0.25 h, mean, read-out: Concentration in Blood, Mean
# [8] = male, rat, plasma, po, 3 mg/kg, rat, 3 mg/kg oral, 0.5 h, individual male animals, read-out: Concentration in Blood
# [9] = male, rat, plasma, po, 3 mg/kg, rat, 3 mg/kg oral, 0.5 h, mean, read-out: Concentration in Blood, Mean
# [10] = male, rat, plasma, po, 3 mg/kg, rat, 3 mg/kg oral, 1 h, individual male animals, read-out: Concentration in Blood
# [11] = male, rat, plasma, po, 3 mg/kg, rat, 3 mg/kg oral, 1 h, mean, read-out: Concentration in Blood, Mean
# [12] = male, rat, plasma, po, 3 mg/kg, rat, 3 mg/kg oral, 2 h, mean, read-out: Concentration in Blood, Mean
# [13] = male, rat, plasma, po, 3 mg/kg, rat, 3 mg/kg oral, 4 h, mean, read-out: Concentration in Blood, Mean
# [14] = male, rat, plasma, po, 3 mg/kg, rat, 3 mg/kg oral, 6 h, mean, read-out: Concentration in Blood, Mean
# [15] = male, rat, plasma, po, 3 mg/kg, rat, 3 mg/kg oral, 8 h, mean, read-out: Concentration in Blood, Mean
# [16] = male, rat, plasma, po, 3 mg/kg, rat, 3 mg/kg oral, 24 h, mean, read-out: Concentration in Blood, Mean
# [17] = male, rat, plasma, po, 3 mg/kg, rat, 3 mg/kg p.o, individual male animals, read-out: Tmax
# [18] = male, rat, plasma, po, 3 mg/kg, rat, 3 mg/kg p.o, mean, summary without unit (Table 12), read-out: AUCinf (mean)
# [19] = male, rat, plasma, po, 3 mg/kg, rat, 3 mg/kg p.o, mean, summary without unit (Table 12), read-out: Cmax (mean)
# [20] = male, rat, plasma, po, 3 mg/kg, rat, 3 mg/kg p.o, mean, read-out: AUCinf, Mean
# [21] = male, rat, plasma, po, 3 mg/kg, rat, 3 mg/kg p.o, mean, read-out: Cmax, Mean
# [22] = male, rat, plasma, po, 3 mg/kg, rat, 3 mg/kg p.o, mean, read-out: Tmax, Mean
# [23] = male, rat, plasma, po, 3 mg/kg, rat, 3 mg/kg p.o, mean, read-out: T½, Mean (converted)
# [24] = rat, 3 mg/kg oral, 0.25 h, individual male animals, 3 mg/kg
# [25] = rat, 3 mg/kg oral, 0.5 h, individual male animals, 3 mg/kg
# [26] = rat, 3 mg/kg oral, 1 h, individual male animals, 3 mg/kg
# [27] = rat, 3 mg/kg oral, 2 h, individual male animals, 3 mg/kg
# [28] = rat, 3 mg/kg oral, 4 h, individual male animals, 3 mg/kg
# [29] = rat, 3 mg/kg oral, 6 h, individual male animals, 3 mg/kg
# [30] = rat, 3 mg/kg oral, 8 h, individual male animals, 3 mg/kg
# [31] = rat, 3 mg/kg p.o, individual male animals, 3 mg/kg
# [32] = rat, 3 mg/kg p.o, mean, summary without unit (Table 12), 3 mg/kg
smiles,measurement,setting,value
"Cc1c(Cc2ccc3ccccc3n2)c2cc(F)ccc2n1CC(=O)O [Compound A, (5-Fluoro-2-methyl-3-quinolin-2-ylmethyl-indol-1-yl)-acetic acid, reference compound]",Potency in inhibition of DK-PGD2-induced blood eosinophilia,[1],37 mg/kg
same,IC50,[2]; [4],103 nM
same,IC50,[2]; [5],103 nM
same,IC50,[2]; [6],0.0358 µg/mL
same,concentration at 0.25 h,[3]; [7],120 ng/mL
same,concentration at 0.5 h,[3]; [8],426 ng/mL
same,concentration at 0.5 h,[3]; [9],357 ng/mL
same,concentration at 1 h,[3]; [10],875 ng/mL
same,concentration at 1 h,[3]; [11],779 ng/mL
same,concentration at 2 h,"[3]; male, rat, plasma, po, 3 mg/kg, rat, 3 mg/kg oral, 2 h, individual male animals, read-out: Concentration in Blood",1420 ng/mL
same,concentration at 2 h,[3]; [12],1250 ng/mL
same,concentration at 4 h,"[3]; male, rat, plasma, po, 3 mg/kg, rat, 3 mg/kg oral, 4 h, individual male animals, read-out: Concentration in Blood",923 ng/mL
same,concentration at 4 h,[3]; [13],857 ng/mL
same,concentration at 6 h,"[3]; male, rat, plasma, po, 3 mg/kg, rat, 3 mg/kg oral, 6 h, individual male animals, read-out: Concentration in Blood",404 ng/mL
same,concentration at 6 h,[3]; [14],451 ng/mL
same,concentration at 8 h,[3]; [15],354 ng/mL
same,concentration at 24 h,[3]; [16],43.7 ng/mL
same,AUC(0-inf),"[3]; male, rat, plasma, po, 3 mg/kg, rat, 3 mg/kg p.o, individual male animals, read-out: AUCinf",8570 ng·h/mL
same,Cmax,"[3]; male, rat, plasma, po, 3 mg/kg, rat, 3 mg/kg p.o, individual male animals, read-out: Cmax",1420 ng/mL
same,Tmax,[3]; [17],2 h
same,AUC(0-inf),[3]; [18],8160 ng·h/mL
same,Cmax,[3]; [19],1250 ng/mL
same,AUC(0-inf),[3]; [20],8160 ng·h/mL
same,Cmax,[3]; [21],1250 ng/mL
same,Tmax,[3]; [22],2 h
same,half-life,[3]; [23],288 min
same,Fold over IC50 at 24 h,[3]; 3 mg/kg,1.2
same,Fold over IC50 at 24 h,"[3]; listed as Compound (A), 3 mg/kg",ca. 1.2
same,Concentration in Blood,[3]; [24],139.1 ng/mL and 153.9 ng/mL and 68.3 ng/mL
same,Concentration in Blood,[3]; [25],388.4 ng/mL and 256.3 ng/mL
same,Concentration in Blood,[3]; [26],923.2 ng/mL and 538.8 ng/mL
same,Concentration in Blood,[3]; [27],1309.0 ng/mL and 1013.6 ng/mL
same,Concentration in Blood,[3]; [28],820.5 ng/mL and 827.0 ng/mL
same,Concentration in Blood,[3]; [29],514.8 ng/mL and 432.6 ng/mL
same,Concentration in Blood,[3]; [30],305.6 ng/mL and 521.9 ng/mL and 235.5 ng/mL
same,Concentration in Blood,"[3]; rat, 3 mg/kg oral, 24 h, individual male animals, 3 mg/kg",51.8 ng/mL and 79.2 ng/mL and 0.0 ng/mL
same,AUCinf,[3]; [31],10429.2 ng·h/mL and 5473.9 ng·h/mL
same,Cmax,[3]; [31],1309.0 ng/mL and 1013.6 ng/mL
same,T½,[3]; [31],6.1 hours (2×) and 2.2 hours
same,Cmax (mean),"[3]; rat, 3 mg/kg p.o, mean, summary without unit (Table 12), 3 mg/kg, in ng/mL",1246
same,AUCinf (mean),[3]; [32],8158
"Cc1c(Cc2ccc(S(C)(=O)=O)cc2)c2cc(F)ccc2n1CC(=O)O [Compound B, [5-Fluoro-3-(4-methanesulfonyl-benzyl)-2-methyl-indol-1-yl]-acetic acid, reference compound]",Potency in inhibition of DK-PGD2-induced blood eosinophilia,[1],17 mg/kg
same,IC50,[2]; [4],8 nM
same,IC50,[2]; [5],8 nM
same,IC50,[2]; [6],0.003 µg/mL
same,IC50,[2]; read-out: IC50 in the whole blood eosinophil shape change assay,8 nM
same,concentration at 0.25 h,"[3]; male, rat, plasma, po, 3 mg/kg, rat, 3 mg/kg oral, 0.25 h, individual male animals, read-out: Concentration in Blood",91.8 ng/mL
same,concentration at 0.25 h,[3]; [7],87.6 ng/mL
same,concentration at 0.5 h,[3]; [8],121 ng/mL
same,concentration at 0.5 h,[3]; [9],140 ng/mL
same,concentration at 1 h,[3]; [10],252 ng/mL
same,concentration at 1 h,[3]; [11],255 ng/mL
same,concentration at 2 h,[3]; [12],381 ng/mL
same,concentration at 4 h,[3]; [13],283 ng/mL
same,concentration at 6 h,[3]; [14],182 ng/mL
same,concentration at 8 h,[3]; [15],114 ng/mL
same,concentration at 12 h,"[3]; male, rat, plasma, po, 3 mg/kg, rat, 3 mg/kg oral, 12 h, mean, read-out: Concentration in Blood, Mean",27.3 ng/mL
same,concentration at 24 h,"[3]; male, rat, plasma, po, 3 mg/kg, rat, 3 mg/kg oral, 24 h, individual male animals, read-out: Concentration in Blood",0 ng/mL
same,concentration at 24 h,[3]; [16],0 ng/mL
same,Tmax,[3]; [17],2 h
same,half-life,"[3]; male, rat, plasma, po, 3 mg/kg, rat, 3 mg/kg p.o, individual male animals, read-out: T½ (converted)",205 min
same,AUC(0-inf),[3]; [18],2200 ng·h/mL
same,Cmax,[3]; [19],381 ng/mL
same,AUC(0-inf),[3]; [20],2200 ng·h/mL
same,Cmax,[3]; [21],381 ng/mL
same,Tmax,[3]; [22],2 h
same,half-life,[3]; [23],144 min
same,Fold over IC50 at 24 h,[3],0
same,Concentration in Blood,[3]; [24],113.6 ng/mL and 57.3 ng/mL
same,Concentration in Blood,[3]; [25],165.7 ng/mL and 132.1 ng/mL
same,Concentration in Blood,[3]; [26],295.1 ng/mL and 217.5 ng/mL
same,Concentration in Blood,[3]; [27],349.9 ng/mL and 536.9 ng/mL and 256.2 ng/mL
same,Concentration in Blood,[3]; [28],179.4 ng/mL and 485.2 ng/mL and 184.9 ng/mL
same,Concentration in Blood,[3]; [29],128.3 ng/mL and 292.2 ng/mL and 125.8 ng/mL
same,Concentration in Blood,[3]; [30],72.1 ng/mL and 184.5 ng/mL and 84.7 ng/mL
same,Concentration in Blood,"[3]; rat, 3 mg/kg oral, 12 h, individual male animals, 3 mg/kg",36.5 ng/mL and 31.0 ng/mL and 14.5 ng/mL
same,Concentration in Blood,"[3]; rat, 3 mg/kg oral, 24 h, individual male animals",0 ng/mL
same,AUCinf,[3]; [31],1831.4 ng·h/mL and 3256.1 ng·h/mL and 1505.1 ng·h/mL
same,Cmax,[3]; [31],349.9 ng/mL and 536.9 ng/mL and 256.2 ng/mL
same,T½,[3]; [31],1.80 h and 1.86 h
same,AUCinf (mean),[3]; [32],2198
